Legend:
[1] = test system: subjects with Acute Migraines; assay: Study 302 (BHV3000-302) Phase 3 placebo-controlled trial, rimegepant 75 mg tablet, acute treatment of migraine: efficacy and safety; format: in vivo, human
Experimental: Clinical Trial—BHV3000-302: Phase 3: Double-Blind, Randomized, Placebo-Controlled, Safety and Efficacy Trial of BHV-3000 (Rimegepant) for the Acute Treatment of Migraine (ClinicalTrials.gov Identifier: NCT03237845) A phase 3 clinical study was conducted with 1503 participants, as follows. The purpose of this study is to compare the efficacy of BHV-3000 (rimegepant) versus placebo in subjects with Acute Migraines • Study Type: Interventional (Clinical Trial) • Actual Enrollment: 1503 participants • Allocation: Randomized • Intervention Model: Parallel Assignment • Intervention Model Description: Double-blind to Sponsor, Investigator and Subject • Masking: Triple (Participant, Care Provider, Investigator) • Masking Description: Double-blind to Sponsor, Investigator and Subject • Primary Purpose: Treatment • Official Title: BHV3000-302: Phase 3: Double-Blind, Randomized, Placebo-Controlled, Safety and Efficacy Trial of BHV-3000 (Rimegepant) for the Acute Treatment of Migraine • Actual Study Start Date: Jul. 26, 2017 • Primary Completion Date: Jan. 25, 2018 • Study Completion Date: Jan. 31, 2018 [table] • 1. Pain Freedom of rimegepant (75 mg tablet) compared with placebo in the acute treatment of migraine will be measured using the number of evaluable subjects that report no pain at 2 hours post-dose. [Time Frame: Two hours post dose] • Pain will be measured on a 4 point Likert scale (0=none, 1=mild, 2=moderate, 3=severe) • 2. Freedom from the most bothersome symptom (MBS) of rimegepant (75 mg tablet) compared with placebo will be measured using the number of evaluable subjects that report the absence of their MBS at 2 hours post-dose. [Time Frame: Two hours post dose] • The MBS (nausea, phonophobia or photophobia) will measured using a binary scale (0=absent, 1=present). • 1. […] [Time Frame: 2 hours −24 hours post-dose] • Sustained Pain Freedom as measured by a 4 point numeric rating scale (None, Mild, Moderate, Severe) • 2. Rimegepant (75 mg tablet) compared to placebo by tabulating the number of subjects that report the absence of photophobia at 2 hours post-dose in the subset of subjects that reported the presence of photophobia at headache baseline. [Time Frame: 2 hours post-dose] • Freedom from Photophobia • 3. Rimegepant (75 mg tablet) compared to placebo by tabulating the number of subjects that report the absence of phonophobia at 2 hours post-dose in the subset of subjects that reported the presence of phonophobia at headache baseline. [Time Frame: 2 hours post-dose] • Freedom from Phonophobia • 4. To measure rimegepant (75 mg tablet) compared to placebo on Pain Relief, at 2 hours post-dose, that report a pain level of moderate or severe at baseline and then report a pain level of none or mild. [Time Frame: 2 hours post-dose] • Pain Relief as measured by a 4 point numeric rating scale (None, Mild, Moderate, Severe) • 5. Freedom from Nausea will by tabulating the number of subjects that report the absence of nausea at 2 hours post-dose in the subset of subjects that reported the presence of nausea at headache baseline. [Time Frame: 2 hours post-dose] • Freedom from Nausea • 6. To measure rimegepant (75 mg tablet) compared to placebo on the probability of requiring rescue medication will be assessed using the number of subjects that take rescue medication within […] administration of study medication (BHV3000 or placebo). [Time Frame: up to 24 hours post-dose] • Requiring Rescue Medication • 7. […] [Time Frame: 2 hours-48 hours post-dose] • Sustained Pain Freedom as measured by a 4 point numeric rating scale (None, Mild, Moderate, Severe) • 8. […] [Time Frame: 2 hours-24 hours post-dose] • Sustained Pain Relief as measured by a 4 point numeric rating scale (None, Mild, Moderate, Severe) • 9. […] [Time Frame: 2 hours-48 hours post-dose] • Sustained Pain Relief as measured by a 4 point numeric rating scale (None, Mild, Moderate, Severe) • 10. […]

[2] = Pooled liver function test (LFT) profile, Study 301 and Study 302; format: in vivo, human; conditions: pooled Study 301 and 302; n = 1089
Experimental: (§1) In a double-blind, randomized, placebo-controlled, multicenter study (Study 301, NCT03235479) adults 3.8 years of age with at least a 1-year history of ICHD 3-beta migraine were eligible to participate. Following a 3- to 28-day screening period, subjects were randomized to receive rimegepant 75 mg or matching placebo and instructed to treat a single migraine attack with 1 dose of the blinded study drug (rimegepant or placebo) when headache pain reached moderate or severe intensity. The coprimary endpoints were pain freedom at 2 hours postdose and freedom from the most bothersome symptom (MBS) at 2 hours postdose. Safety assessments included adverse events (AEs), ECGs, vital signs, physical measurements, and routine laboratory tests, including assessment of liver function. Unless stated otherwise, values presented are mean±SD.
as §1, with “302, NCT03237845)” for “301, NCT03235479)”, “≥18” for “3.8”

Structure (SMILES): N[C@@H]1c2cccnc2[C@H](OC(=O)N2CCC(n3c(=O)[nH]c4ncccc43)CC2)CC[C@H]1c1cccc(F)c1F [Rimegepant, [(5S,6S,9R)-5-amino-6-(2,3-difluorophenyl)-6,7,8,9-tetrahydro-5H-cyclohepta[b]pyridin-9-yl] 4-(2-oxo-3H-imidazo[4,5-b]pyridin-1-yl)piperidine-1-carboxylate]
- SAEs related to the study drug [1]: No SAEs were determined to be related to the study drug
- Transaminase level greater than 3 times ULN, subjects [1]: No subject
- Adverse event urinary tract infection, incidence ([1]; 8/543): 1.5%
- Adverse event nausea, incidence ([1]; 10/543): 1.8%
- Serum ALT or AST levels greater than ULN, subjects ([1]; 13/543): 2.4%
- Proportion of patients achieving normal function at 2 hours (functional disability) versus placebo ([1]; P<0.0001): greater proportion
- Serious AEs (SAEs), number of subjects ([1]; back pain): 1 subject
- ALT >3x ULN, subjects n (%) [2]: 1 (0.1%) n (%)
- ALT >5x ULN, subjects [2]: 0
- ALT >10x ULN, subjects [2]: 0
- ALT >20x ULN, subjects [2]: 0
- ALT >ULN, subjects n (%) [2]: 22 (2.0%) n (%)
- AST >3x ULN, subjects n (%) [2]: 1 (0.1%) n (%)
- AST >5x ULN, subjects [2]: 0
- AST >10x ULN, subjects [2]: 0
- AST >20x ULN, subjects [2]: 0
- AST >ULN, subjects n (%) [2]: 12 (1.1%) n (%)
